melting point [°C]	SMILES
90	CCCCC(=O)CC(=O)c1ccc(C2CCC(CC)CC2)cc1 (stereo unspecified)
85 to 86	CCOCN1C(C)=C(C(=O)O)[C@H](c2cccc([N+](=O)[O-])c2)C(C(=O)OCOC(=O)C(C)(C)C)=C1C
> 300	CC(C)c1ccc2oc3cc(C#N)c(O)nc3c(=O)c2c1
99 to 101	O=C1CCC(CO)N1C(=O)Nc1ccccc1 (stereo unspecified)
117 to 118	O=C(O)c1cccn1Cc1ccco1
142 to 143	O=C(O)c1ccc(OCCCc2ccc(OCCCCOc3ccccc3)cc2)c(C(=O)N2CCC(C(=O)O)CC2)c1
74	C#CCOc1cc(OCC#C)ncn1
300	Sc1nc2cccccc-2n1
186 to 188	CCc1nn(-c2c(Cl)cc(Cl)cc2Cl)c(N)c1C(N)=O
142	COc1ccc(-n2nc(OC)cc2-c2ccc(OCCNC(N)=S)cc2)cc1
147 to 157	COC1(NC(=O)NS(=O)(=O)c2cccc(N=C=O)c2)C=C(C)N=CN1 (stereo unspecified)
102 to 107	COc1ccc2nc(Sc3ccc4c(c3)CC[C@H]3N(C)C(=O)CC[C@]43C)sc2c1
171 to 173	O=C(O)Cn1cccc(NC(=O)OCc2ccccc2)c1=O
180 to 182	Cc1cc2c(cc1Cl)N(C(=O)CN1CCN(c3ncccn3)CC1)c1ccccc1N(C)S2(=O)=O
146 to 148	COc1cccc(Oc2cccc(Oc3ccc4c(c3)OCO4)c2C(=O)O)c1
201 to 205	CCCCCCCCCCCC(=O)Nc1ccc(O)c(C(=O)O)c1
58.8	N#CC(CC1CCCCC1)c1ccc(Cl)cc1Cl (stereo unspecified)
83 to 85	CCCCCCCCCCCCCCC(C)(C(=O)O)C(=O)O
165	CC(=O)OC1CSC(Oc2ccccc2-c2ccncc2)C(OC(C)=O)C1OC(C)=O (stereo unspecified)

melting point [°C]	SMILES
105 to 107	CCCCNc1cc(CNC(=O)OCC)cc(S(N)(=O)=O)c1Oc1ccccc1
281 to 283	CCCCn1c(=O)c2cc(C(=O)O)cn2c2cc(Cl)c(Cl)cc21
47 to 48	CSc1cc(C=O)nn1C
117 to 118	CC(C)(O)Cc1ccc(NC(=O)OCc2ccccc2)cc1
69 to 70	CCCCN(Cc1ccccc1)C(=O)Nc1cccc(Cl)c1
178 to 182	CCCc1nc2c(N)nc3cc(OC4CCOC4)ccc3c2n1CC(C)C (stereo unspecified)
192 to 194	CCOC(=O)C1=C(C)NC(C)=C(C(=O)OCC)C1c1ccccc1/C=C/C(=O)OC1CCCCCC1
184 to 185	COc1nc(C)cnc1NS(=O)(=O)c1ccccc1-c1ccc(C)cc1
165 to 168	CCNc1ccc(Cc2ccc(NCC)c3ccccc23)c2ccccc12
245 to 250	CC12CCC(O)CC1=CCC1C2CCC2(C)C(=C(C#N)CC(=O)O)CCC12 (stereo unspecified)
97 to 97.5	CC(=O)c1ccc(-c2ccccc2)c(F)c1
303 to 305	Cc1c2c(c(-c3ccc(C(F)(F)F)cc3)c3c4c(ccc13)OCO4)CNC2=O
70	O=P(O)(O)C1(P(=O)(O)O)CCCCN1
228 to 231	O=C(NC(=O)c1ccccc1Cl)Nc1ccc(-c2ccc(Cl)cc2)cn1
196	CCCc1nc(C)n2c(=O)[nH]nc2c1Cc1ccc(-c2ccccc2C#N)cc1
78 to 80	CCNC=C(C(=O)C=Cc1cccnc1)C(=O)OC
105 to 106	Fc1cc(Cl)c2ccc(Cl)cc2n1
77 to 80	CCCCC1C(C(=O)OCC)C(O)(C(F)(F)F)NC(O)(C(F)(F)F)C1C(=O)OCC (stereo unspecified)
183 to 184	NC(=O)CNC(=O)c1cccc(-c2ccc3c(n2)N(Cc2ccc(Cl)cc2Cl)CC3)c1

SMILES	melting point [°C]
CCOC(=O)c1[nH]c2c(c1C)CC1CN(CC)CCC1(c1cccc(O)c1)C2 (stereo unspecified)	195 to 197
N#Cc1nn(-c2c(Cl)cc(C(F)(F)F)cc2Cl)cc1-c1ccoc1Cl	125
C[C@@H]1N(c2ccc(C#N)c(C(F)(F)F)c2)C(=O)C[C@@]1(O)C1CC1	84 to 90
